According to article PMC10314922, “Fluorescence lifetime FRET assay for live-cell high-throughput screening of the cardiac SERCA pump yields multiple classes of small-molecule allosteric modulators” (Scientific Reports, 2023):
Several values for one entry are separate records, joined by “and”; a condition that tells them apart may be missing. Equal values may be shown once.

Tests used:
SERCA2a [1] = target: T1, SERCA2a (Sus scrofa, UniProt P11607); experiment: NADH-linked Ca2+-ATPase activity assay in pig cardiac SR (pCSR) vesicles; type: biochemical; conditions: for Ca2+-ATPase C10: concentration yielding 10% effect; for Decrease of ΔFMAX and ΔFMID for Ca2+-ATPase activity: both [Ca2+], stated as size of decrease; for Ca2+-ATPase ΔFMAX / Ca2+-ATPase ΔFMID: maximal compound effect vs DMSO control, pCSR; for Effect on Ca2+-ATPase activity (category, Fig. 4A): activators, categories activate / uncouple / inhibit
T1 construct: Cardiac SR vesicles were isolated from fresh porcine left ventricular tissue using differential centrifugation; from tissue; host or cells: porcine left ventricular tissue (cardiac SR vesicles)
Method: (§1) Cardiac SR vesicles were isolated from fresh porcine left ventricular tissue using differential centrifugation of the homogenized tissue as previously described. The SR vesicles were flash-frozen and stored at − 80 °C until needed. The SERCA concentration in the ER preparations purified from HEK cell homogenate is at least 10 times less than in purified porcine cardiac SR[20], but there was sufficient expression of the fluorescent SERCA2a biosensor in HEK cells to detect FRET with high precision by FLT[22],[23],[26].
Functional assays were performed using porcine cardiac SR (pCSR) vesicles. An enzyme-coupled, NADH-linked ATPase assay was used to measure SERCA ATPase activity in 384-well microplates. Each well contained 50 mM MOPS (pH 7.0), 100 mM KCl, 1 mM EGTA, 0.2 mM NADH, 1 mM phosphoenol pyruvate, 10 IU/mL of pyruvate kinase, 10 IU/mL of lactate dehydrogenase, 7 µM of the calcium ionophore A23187 (Sigma), and CaCl2 was added to set free [Ca^2+] to three different concentrations. Ca^2+-ATPase activity was measured at three [Ca^2+]: [Ca^2+]MAX (saturating, pCa 5.4), [Ca^2+]MID (subsaturating, midpoint, pCa 6.2), and [Ca^2+]BAS (basal non-activating, pCa 8.0). 10 μg/mL of SR vesicle, calcium, compound (0.048 to 50 μM), and assay mix were incubated for 20 min at room temperature before measurement of functional assays with each of the 18 hit compounds, because a shorter incubation time than the FRET live-cell assays achieved optimal responses. The assay was started upon the addition of MgATP, at a final concentration of 5 mM (total volume to 80 μL), and absorbance was read at 340 nm in a SpectraMax Plus^384 microplate spectrophotometer (Molecular Devices, Sunnyvale, CA).
(§2) SERCA2a activity, F (rate of ATP hydrolysis or Ca^2+ uptake), was measured at varying pCa and varying compound concentration. F measured at [Ca^2+]MAX (saturating, pCa 5.4) or [Ca^2+]MID (subsaturating, midpoint, pCa 6.2) was corrected by subtracting the basal rate at pCa 8.0) and the % effect due to compound was reported. Concentration response curves (CRC) were fitted using the Hill function to determine VMAX (the activity at saturating [compound]), and EC50, the compound concentration at 50% effect.

SERCA2a [2] = target: T1, SERCA2a; experiment: Oxalate-supported Fluo-4 Ca2+-uptake (Ca2+-transport) assay in pig cardiac SR (pCSR) vesicles; type: biochemical; conditions: for Ca2+-Uptake C10: concentration yielding 10% effect; for Decrease of ΔFMAX and ΔFMID for Ca2+-uptake: both [Ca2+], stated as size of decrease; for CR (coupling ratio) VU/VA: maximum Ca2+-uptake rate / Ca2+-ATPase rate at [Ca2+]MAX, DMSO control = 0.66; for Ca2+-Uptake ΔFMAX / Ca2+-Uptake ΔFMID: maximal compound effect vs DMSO control, pCSR; for Effect on Ca2+-uptake (category, Fig. 4A): activators, categories activate / uncouple / inhibit; for Increase in Ca2+-uptake: over [Ca2+]MAX and [Ca2+]MID
Method: as §1
Ca^2+-transport assays were performed with similar porcine SR samples as in the Ca^2+-ATPase assays described above. The compound effect on the Ca^2+-transport activity of SERCA2a was determined using an oxalate-supported assay in which the change in fluorescence in a Ca^2+-sensitive dye, Fluor-4, was determined as previously described. A buffered solution containing 50 mM MOPS (pH 7.0), 100 mM KCl, 30 mg/mL sucrose, 1 mM EGTA, 10 mM potassium oxalate, 2 µM Fluo-4, 30 µg/mL porcine cardiac SR vesicles, CaCl2 calculated to reach the free [Ca^2+] (pCa 8.0, 6.2, and 5.4), and compound (0.048 to 50 μM) was dispensed into 384-well black walled, transparent bottomed plates (Greiner Bio-One) containing the tested small molecule and incubated at 22℃ for 20 min while covered and protected from light. To start the reaction, MgATP was added to a final concentration of 5 mM, and the decrease in 485-nm excited fluorescence of Fluo-4 was monitored at 520 nm for 15 min using a FLIPR Tetra (Molecular Devices, San Jose, CA).
as §2

[3] = target: T2, human two-color SERCA2a (2CS) biosensor (Homo sapiens, UniProt P16615, INS508[…]); experiment: FRET concentration response curves (FLT-FRET) with the 2CS biosensor in live HEK cells; type: cell-based
T2 construct: expressed in transfected cells
Text: A two-color intramolecular human SERCA2a (2CS) biosensor, based on human cardiac SERCA2a fused to green fluorescent protein (eGFP) and red fluorescent protein (tagRFP) was developed to detect structural changes that are related to the functional changes of SERCA[20],[22],[25]. Briefly, tagRFP was genetically fused to the N-terminus of SERCA (A-domain) and eGFP was inserted as an intrasequence tag before residue 509 in the nucleotide-binding domain (N-domain)[60],[61]. Donor-only and acceptor-only (1CS) biosensors were created in a similar manner as the 2CS biosensor but with the construct containing either only eGFP or only tag-RFP, respectively. […] A null-biosensor construct consisting of eGFP and tagRFP connected by a 32-residue unstructured flexible linker peptide (G32R) was created as described previously[23],[25]. All constructs were cloned into expression vectors containing the genes for antibiotic resistance to G418, puromycin, or blasticidin.
Stable cell lines were generated using either human embryonic kidney (HEK) HEK293 (ATCC, Manassas, VA) or HEK293-6E (National Research Council, Canada) cells. Briefly, cells were transiently transfected with 2CS, 1CS, or G32R null-biosensor plasmids using Lipofecatime 3000 or 293fectin (Thermo Fisher Scientific). Flow cytometry was used to select and enrich for the population of cells expressing respective biosensors. Stable HEK293 cell lines were maintained in phenol red-free DMEM media (Gibco, Waltham, MA) supplemented with 2 mM GlutaMAX (Gibco, Waltham, MA), 10% fetal bovine serum (FBS) (Atlanta Biologicals, Lawrenceville, GA), 1 IU/mL penicillin/streptomycin (Gibco, Waltham, MA), and 250 μg/mL G418 (Fisher Scientific). Stable HEK293-6E cell lines were maintained in F17 media (Sigma Aldrich) supplemented with Kolliphor p188 (Sigma Aldrich, St. Louis, MO), […] GlutaMAX, and either 1 μg/mL puromycin (Invitrogen, Carlsbad, CA) or 2 μg/mL blasticidin (Goldbio) as a selection antibiotic. All cell lines were grown at 37 °C with 5% CO2.
FRET CRC assay plates (0.78–100 μM compound range) with at least ten different compound concentrations were made by adding the appropriate volume of compound or DMSO into black 384 well plates (Greiner Bio-One) using a Mosquito HV (SPTLabTech, United Kingdom). Subsequent Ca^2+-ATPase activity and Ca^2+-transport CRC assay plates (0–50 μM compound range) with repurchased compounds were made in a similar manner using with the Echo 550 (Beckman Coulter) using either 384 well transparent plates (Greiner Bio-One) or black-walled plates with transparent bottoms (Greiner Bio-One), respectively.
On each day of screening, cells were harvested, washed three times with PBS, and centrifuged at 300 g for 5 min. Cells were filtered using a 70 µm cell strainer and diluted to 1–2 × 10^6 cells/mL. Cell concentration and viability were assessed using the Cell countess (Invitrogen) and trypan blue assay. During assays, cells were constantly and gently stirred using a magnetic stir bar at room temperature, keeping the cells in suspension and evenly distributed to avoid clumping. HEK 293-cells expressing 2CS were dispensed at 5 μL or […] per well into assay plates (dispensed into 40 assay plates, each containing 1536 wells) pre-plated with compounds (from a DIVERset 50,000 compound library) using a Multdrop Combi liquid dispenser (Thermo Fisher Scientific, Pittsburg, PA) and sealed until needed. Because the kinetics of membrane permeability, diffusion, and/or binding of the compound to live cells may be compound-dependent, we tested two incubation times, 20 min and 120 min, for the FRET CRC. […] Plates containing eight-point concentration curves of three tool compounds (known SERCA effectors thapsigargin, BHQ, and CPA)[22] were used as positive controls for biosensor function and performance prior to running the full-scale FRET-HTS assay. […]

T1 sequence (P11607 1-997 isoform P11607-2): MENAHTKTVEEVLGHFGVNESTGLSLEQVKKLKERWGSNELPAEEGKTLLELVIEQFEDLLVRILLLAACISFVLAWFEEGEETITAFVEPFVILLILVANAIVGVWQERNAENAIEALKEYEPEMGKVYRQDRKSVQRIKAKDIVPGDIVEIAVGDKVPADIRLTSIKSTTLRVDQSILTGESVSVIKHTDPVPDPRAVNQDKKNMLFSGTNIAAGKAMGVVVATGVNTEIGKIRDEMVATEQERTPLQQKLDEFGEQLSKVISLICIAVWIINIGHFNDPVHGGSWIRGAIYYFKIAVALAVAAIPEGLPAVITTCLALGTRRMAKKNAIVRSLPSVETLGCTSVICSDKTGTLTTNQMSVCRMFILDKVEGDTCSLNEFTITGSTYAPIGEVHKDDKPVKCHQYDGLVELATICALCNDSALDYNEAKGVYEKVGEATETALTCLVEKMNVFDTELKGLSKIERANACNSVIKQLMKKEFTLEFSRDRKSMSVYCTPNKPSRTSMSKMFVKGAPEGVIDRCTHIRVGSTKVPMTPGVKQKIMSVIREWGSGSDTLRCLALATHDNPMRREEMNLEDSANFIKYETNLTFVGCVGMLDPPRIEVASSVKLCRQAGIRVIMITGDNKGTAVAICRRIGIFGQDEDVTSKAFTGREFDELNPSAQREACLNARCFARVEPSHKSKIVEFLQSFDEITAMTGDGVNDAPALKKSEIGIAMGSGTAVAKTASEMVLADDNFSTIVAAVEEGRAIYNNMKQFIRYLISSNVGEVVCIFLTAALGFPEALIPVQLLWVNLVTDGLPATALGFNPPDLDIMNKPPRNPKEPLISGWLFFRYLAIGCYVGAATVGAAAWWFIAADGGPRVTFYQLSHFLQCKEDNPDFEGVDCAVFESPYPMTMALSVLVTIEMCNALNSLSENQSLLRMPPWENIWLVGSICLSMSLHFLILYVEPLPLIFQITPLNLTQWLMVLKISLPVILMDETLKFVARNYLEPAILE
T2 sequence (P16615 other isoform, or with tags, fused parts or gaps with the stated changes): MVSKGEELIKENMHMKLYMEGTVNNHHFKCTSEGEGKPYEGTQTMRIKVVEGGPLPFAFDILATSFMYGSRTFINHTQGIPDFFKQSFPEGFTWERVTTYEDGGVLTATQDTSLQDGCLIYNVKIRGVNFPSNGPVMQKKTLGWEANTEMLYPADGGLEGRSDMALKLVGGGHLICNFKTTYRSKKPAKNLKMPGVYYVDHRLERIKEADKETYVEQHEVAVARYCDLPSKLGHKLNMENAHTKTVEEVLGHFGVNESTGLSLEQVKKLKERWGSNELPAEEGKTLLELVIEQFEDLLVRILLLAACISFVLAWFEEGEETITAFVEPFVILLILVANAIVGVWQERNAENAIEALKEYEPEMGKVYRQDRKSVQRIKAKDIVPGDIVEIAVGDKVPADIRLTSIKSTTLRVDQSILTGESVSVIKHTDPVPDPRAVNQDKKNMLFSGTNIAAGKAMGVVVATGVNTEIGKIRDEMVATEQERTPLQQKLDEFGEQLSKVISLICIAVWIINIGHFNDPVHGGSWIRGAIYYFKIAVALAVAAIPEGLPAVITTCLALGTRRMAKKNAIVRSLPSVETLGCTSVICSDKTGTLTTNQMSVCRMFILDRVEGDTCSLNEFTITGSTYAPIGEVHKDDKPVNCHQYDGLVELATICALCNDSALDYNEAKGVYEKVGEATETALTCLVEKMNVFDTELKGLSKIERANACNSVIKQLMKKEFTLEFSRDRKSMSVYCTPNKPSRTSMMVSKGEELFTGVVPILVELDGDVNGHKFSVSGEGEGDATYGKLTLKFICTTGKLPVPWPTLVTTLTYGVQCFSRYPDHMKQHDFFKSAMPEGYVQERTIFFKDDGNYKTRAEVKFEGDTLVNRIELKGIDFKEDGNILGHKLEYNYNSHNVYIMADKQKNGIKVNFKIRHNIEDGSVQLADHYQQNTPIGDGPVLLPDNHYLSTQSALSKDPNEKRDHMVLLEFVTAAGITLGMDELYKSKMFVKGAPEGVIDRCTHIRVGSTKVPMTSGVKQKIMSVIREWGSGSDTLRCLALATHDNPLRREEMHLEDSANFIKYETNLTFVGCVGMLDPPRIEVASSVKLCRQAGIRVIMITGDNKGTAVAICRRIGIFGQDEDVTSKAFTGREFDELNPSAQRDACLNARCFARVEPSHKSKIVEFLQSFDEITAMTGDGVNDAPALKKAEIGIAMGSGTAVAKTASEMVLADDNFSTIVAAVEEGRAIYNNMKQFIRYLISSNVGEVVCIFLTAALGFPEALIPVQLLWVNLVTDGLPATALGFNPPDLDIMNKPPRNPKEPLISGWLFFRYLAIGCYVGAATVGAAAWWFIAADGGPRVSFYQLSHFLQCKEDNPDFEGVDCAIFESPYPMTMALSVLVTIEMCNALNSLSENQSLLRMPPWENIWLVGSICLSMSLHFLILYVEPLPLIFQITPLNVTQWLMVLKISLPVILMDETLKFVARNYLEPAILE

Row | Compound | Ca2+-ATPase C10 (SERCA2a [1]; [Ca2+]MAX (pCa5.4)) | Ca2+-ATPase C10 (SERCA2a [1]; [Ca2+]MID (pCa6.2)) | Decrease of ΔFMAX and ΔFMID for Ca2+-ATPase activity (SERCA2a [1]) | Ca2+-Uptake C10 (SERCA2a [2]; [Ca2+]MAX (pCa5.4)) | Ca2+-Uptake C10 (SERCA2a [2]; [Ca2+]MID (pCa6.2)) | Decrease of ΔFMAX and ΔFMID for Ca2+-uptake (SERCA2a [2]) | CR (coupling ratio) VU/VA (SERCA2a [2]) | EC50 [3] | Ca2+-ATPase ΔFMAX (SERCA2a [1]; [Ca2+]MAX (pCa5.4)) | Ca2+-ATPase ΔFMID (SERCA2a [1]; [Ca2+]MID (pCa6.2)) | Effect on Ca2+-ATPase activity (category, Fig. 4A) (SERCA2a [1]) | Ca2+-Uptake ΔFMAX (SERCA2a [2]; [Ca2+]MAX (pCa5.4)) | Ca2+-Uptake ΔFMID (SERCA2a [2]; [Ca2+]MID (pCa6.2)) | Effect on Ca2+-uptake (category, Fig. 4A) (SERCA2a [2]) | Increase in Ca2+-uptake (SERCA2a [2]) | EC50 (SERCA2a [2]; [Ca2+]MAX (pCa5.4)) | EC50 (SERCA2a [2]; [Ca2+]MID (pCa6.2)) | EC50 (SERCA2a [1]; [Ca2+]MAX (pCa5.4)) | Increase in Ca2+-ATPase activity (SERCA2a [1]) | Decrease (inhibition) of Ca2+-uptake at [Ca2+]MAX (SERCA2a [2]; [Ca2+]MAX, size of decrease)
1 | CCC(C)(C)c1nnc(NC(=O)NCc2ccc(F)cc2F)s1 [Compound 15, N-(2,4-difluorobenzyl)-N'-[5-(1,1-dimethylpropyl)-1,3,4-thiadiazol-2-yl]urea] | 0.7 µM | 0.4 µM | ~ 50% | 0.9 µM | 1.7 µM | 70–95% | 0.19 | 16 ± 4.7 µM | – | – | – | – | – | – | – | – | – | – | – | –
2 | O=C(c1cc(COc2ccc3ncccc3c2)on1)N1CCC(c2ccncc2)CC1 [Compound 2, 6-[(3-{[4-(4-pyridinyl)-1-piperidinyl]carbonyl}-5-isoxazolyl)methoxy]quinoline] | 48 µM | – | – | – | – | – | 0.53 | 1.4 ± 0.5 µM | 16% and 16 ± 3% | 7% and 7 ± 3% | activate | 4 ± 6.1% | 4 ± 2.1% | uncouple | 0.5–10% | – | – | – | – | –
3 | OCC1(CCOc2ccccc2)CCCN(Cc2cc3c(cc2Cl)OCO3)C1 (stereo not drawn) [Compound 13, [1-[(6-chloro-1,3-benzodioxol-5-yl)methyl]-3-(2-phenoxyethyl)-3-piperidinyl]methanol] | 1 µM | 1.6 µM | – | 0.5 µM | 1.0 µM | – | – | 9.9 ± 2.1 µM | – | – | – | – | – | – | – | 3.6 ± 0.1 µM | 6.4 ± 0.2 µM | – | – | –
4 | CC1Cc2cc(CNC(=O)c3cc(C(C)C)nn3C)ccc2O1 (stereo not drawn) [Compound 9, 3-isopropyl-1-methyl-N-[(2-methyl-2,3-dihydro-1-benzofuran-5-yl)methyl]-1H-pyrazole-5-carboxamide] | 30.7 µM | – | – | – | – | – | 0.51 | 0.6 ± 0.1 µM | 21% and 21 ± 5% | 10% and 10 ± 6% | activate | 5 ± 2.2% | 3 ± 2.4% | uncouple | 3–5% and 0.5–10% | – | – | 24 ± 9 µM | – | –
5 | O=C(c1cc(COc2ccc3c(c2)CCCC3)on1)N1CCC(c2ccncc2)CC1 [Compound 3, 4-[1-({5-[(5,6,7,8-tetrahydro-2-naphthalenyloxy)methyl]-3-isoxazolyl}carbonyl)-4-piperidinyl]pyridine] | 11.0 µM | 14.8 µM | – | 17.5 µM | – | – | 0.39 | 1.6 ± 0.2 µM | 21 ± 5.1% | 30 ± 11% | activate | – | 6% and 6 ± 3.3% | inhibit | – | – | – | 8.4 ± 3.1 µM | 10–25% | 20%
6 | O=S(=O)(NCc1ccccc1)N1CCc2ccc(C(F)(F)F)cc2C1 [Compound 17, N-benzyl-7-(trifluoromethyl)-3,4-dihydroisoquinoline-2(1H)-sulfonamide] | 6.2 µM | 5 µM | ~ 50% | 1 µM | 2.2 µM | 70–95% | 0.09 | 32 ± 5.3 µM | – | – | – | – | – | – | – | – | – | – | – | –
